doi:10.1101/2023.09.25.559398v1 (biorxiv, 2023)

How the values were obtained:
D2longR [1] = molecular target: T1, D2longR (Homo sapiens, UniProt P14416); assay: radioligand competition binding, cell homogenates
D4R (D4.4R) = molecular target: T2, D4R (D4.4R) (Homo sapiens, UniProt P21917); assay: radioligand competition binding, cell homogenates
T2 sequence (P21917 1-419): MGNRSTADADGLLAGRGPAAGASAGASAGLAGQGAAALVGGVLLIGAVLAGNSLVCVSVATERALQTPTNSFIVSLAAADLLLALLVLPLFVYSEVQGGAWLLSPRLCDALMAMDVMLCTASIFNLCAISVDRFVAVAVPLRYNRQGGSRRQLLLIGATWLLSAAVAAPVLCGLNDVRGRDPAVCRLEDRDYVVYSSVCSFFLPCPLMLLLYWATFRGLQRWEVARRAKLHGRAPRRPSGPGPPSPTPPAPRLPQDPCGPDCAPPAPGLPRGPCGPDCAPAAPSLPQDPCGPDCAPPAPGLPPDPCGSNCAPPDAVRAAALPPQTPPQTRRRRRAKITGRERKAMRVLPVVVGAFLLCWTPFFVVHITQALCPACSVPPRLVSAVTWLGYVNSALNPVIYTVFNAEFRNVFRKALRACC

D3R = D3R (Homo sapiens, UniProt P35462); assay: radioligand competition binding, cell homogenates
Chain of D3R (P35462 whole entry): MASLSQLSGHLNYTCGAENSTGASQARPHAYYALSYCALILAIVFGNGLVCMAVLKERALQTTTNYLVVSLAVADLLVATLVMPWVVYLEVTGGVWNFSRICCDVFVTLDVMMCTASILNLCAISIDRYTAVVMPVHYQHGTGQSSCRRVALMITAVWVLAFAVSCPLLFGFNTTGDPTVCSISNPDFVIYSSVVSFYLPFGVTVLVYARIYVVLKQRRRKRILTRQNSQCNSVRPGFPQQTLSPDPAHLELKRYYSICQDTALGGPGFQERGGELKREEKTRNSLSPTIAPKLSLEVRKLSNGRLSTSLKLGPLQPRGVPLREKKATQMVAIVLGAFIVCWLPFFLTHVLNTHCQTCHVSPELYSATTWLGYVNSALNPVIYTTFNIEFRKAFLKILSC

D5R = D5R (Homo sapiens, UniProt P21918); assay: radioligand competition binding, cell homogenates
Chain of D5R (P21918 whole entry): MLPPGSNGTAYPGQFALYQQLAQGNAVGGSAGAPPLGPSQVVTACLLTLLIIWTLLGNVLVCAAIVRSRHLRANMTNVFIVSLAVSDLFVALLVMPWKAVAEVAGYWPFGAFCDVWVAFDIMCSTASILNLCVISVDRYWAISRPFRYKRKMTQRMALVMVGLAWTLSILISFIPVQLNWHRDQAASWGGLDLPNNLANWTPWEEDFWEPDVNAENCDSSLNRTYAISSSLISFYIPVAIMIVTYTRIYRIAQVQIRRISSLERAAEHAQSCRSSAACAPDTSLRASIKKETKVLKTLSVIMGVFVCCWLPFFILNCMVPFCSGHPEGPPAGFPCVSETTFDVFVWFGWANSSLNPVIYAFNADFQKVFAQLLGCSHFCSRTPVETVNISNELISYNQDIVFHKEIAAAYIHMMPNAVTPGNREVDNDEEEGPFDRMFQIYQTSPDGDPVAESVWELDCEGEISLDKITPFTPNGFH

D1R = D1R (Homo sapiens, UniProt P21728); assay: radioligand competition binding, cell homogenates
Chain of D1R (P21728 whole entry): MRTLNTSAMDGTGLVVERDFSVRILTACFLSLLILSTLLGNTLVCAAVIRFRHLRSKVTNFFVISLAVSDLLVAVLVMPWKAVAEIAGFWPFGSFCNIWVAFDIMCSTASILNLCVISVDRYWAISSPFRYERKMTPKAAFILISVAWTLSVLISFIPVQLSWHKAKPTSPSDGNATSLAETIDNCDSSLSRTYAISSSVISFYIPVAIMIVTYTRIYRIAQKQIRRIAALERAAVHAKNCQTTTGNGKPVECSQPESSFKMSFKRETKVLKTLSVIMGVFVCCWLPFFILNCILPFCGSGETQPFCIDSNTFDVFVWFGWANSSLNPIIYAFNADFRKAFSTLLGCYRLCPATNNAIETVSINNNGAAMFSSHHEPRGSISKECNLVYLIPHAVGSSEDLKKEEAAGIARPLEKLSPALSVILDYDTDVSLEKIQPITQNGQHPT

D2longR [2] = molecular target: T1, D2longR; assay: Go1-CASE BRET heterotrimer dissociation assay, antagonist mode; assay type: cell-based
[3] = molecular target: D2longR-mNeonGreen (hD2R-mNeonGreen) (Homo sapiens, UniProt P14416); assay: molecular brightness, confocal microscopy of intact cells; assay type: cell-based
Chain of D2longR-mNeonGreen (hD2R-mNeonGreen) (P14416 whole entry): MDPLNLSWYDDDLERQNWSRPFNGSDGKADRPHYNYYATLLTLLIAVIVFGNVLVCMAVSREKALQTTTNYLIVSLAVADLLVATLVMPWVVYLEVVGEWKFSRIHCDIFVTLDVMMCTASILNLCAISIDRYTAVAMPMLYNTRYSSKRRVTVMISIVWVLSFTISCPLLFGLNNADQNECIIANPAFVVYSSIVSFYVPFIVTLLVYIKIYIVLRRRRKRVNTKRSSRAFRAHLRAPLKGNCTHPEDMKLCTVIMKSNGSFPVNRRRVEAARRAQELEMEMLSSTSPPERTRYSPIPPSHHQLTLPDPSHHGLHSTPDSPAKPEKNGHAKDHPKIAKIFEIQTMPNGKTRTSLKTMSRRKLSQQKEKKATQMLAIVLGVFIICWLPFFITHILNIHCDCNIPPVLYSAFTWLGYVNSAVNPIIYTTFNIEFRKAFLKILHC

D4R = molecular target: T3, D4R (Homo sapiens, UniProt P21917); assay: Go1-CASE BRET heterotrimer dissociation assay, antagonist mode; assay type: cell-based
T3 sequence (P21917 1-419): T2 sequence (P21917 1-419)

T1 sequence (P14416 whole entry): as above

pKi (D2longR [1]; displacement of […] [3H]N-methylspiperone, room temperature, […] min, N = […])	Ki (D2longR [1])	Ki (D4R (D4.4R))	Ki (D3R)	Ki (D5R)	Ki (D1R)	Kb (D2longR [2])	Kd [3]	Kb (D4R)	SMILES
6.67 ± 0.07									COCC[N+]1=C(C=CC=C2N(CCCCCC(=O)NCCCOCCOCCOCCCNC(=O)CCC(=O)Nc3ccc(CCN4CN(c5ccccc5)C5(CCN(CCCC(=O)c6ccc(F)cc6)CC5)C4=O)cc3)c3ccc(S(=O)(=O)[O-])cc3C2(C)CCCS(=O)(=O)O)C(C)(CCCS(=O)(=O)O)c2cc(S(=O)(=O)O)ccc21 (centres unmarked) [compound 16]
	5.62 nM	29.5 nM	5.13 nM	> 3160 nM	331 nM				CN(C)c1ccc2c(-c3ccc(C(=O)NCCCOCCOCCOCCCNC(=O)CCC(=O)Nc4ccc(CCN5CN(c6ccccc6)C6(CCN(CCCC(=O)c7ccc(F)cc7)CC6)C5=O)cc4)cc3C(=O)[O-])c3ccc(=[N+](C)C)cc-3oc2c1 [compound 17, 2-(6-(Dimethylamino)-3-(dimethyliminio)-3H-xanthen-9-yl)-5-((18-((4-(2-(8-(4-(4-fluorophenyl)-4-oxobutyl)-4-oxo-1-phenyl-1,3,8-triazaspiro[4.5]decan-3-yl)ethyl)phenyl)amino)-15,18-dioxo-4,7,10-trioxa-14-azaoctadecyl)carbamoyl)benzoate dihydrotrifluoroacetate]
	5.75 nM	16.6 nM	2.63 nM	331 nM	67.6 nM	0.0295 nM	7.59 nM	1.66 nM	CN(C)c1ccc2c(-c3ccc(C(=O)NCCCC(=O)Nc4ccc(CCN5CN(c6ccccc6)C6(CCN(CCCC(=O)c7ccc(F)cc7)CC6)C5=O)cc4)cc3C(=O)[O-])c3ccc(=[N+](C)C)cc-3oc2c1 [compound 20, 2-(6-(Dimethylamino)-3-(dimethyliminio)-3H-xanthen-9-yl)-5-((4-((4-(2-(8-(4-(4-fluorophenyl)-4-oxobutyl)-4-oxo-1-phenyl-1,3,8-triazaspiro[4.5]decan-3-yl)ethyl)phenyl)amino)-4-oxobutyl)carbamoyl)benzoate dihydrotrifluoracetate]
